Test results reported in ChEMBL document CHEMBL1201862, “PubChem BioAssay data set” (2004).
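Method: 48-hour compound exposure of cells in 96-well plates, five concentrations, linear interpolation of endpoints. GI50: concentration for 50% inhibition of growth.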 Calls of active or inactive are those of the source. Rule as the data show it: active = GI50 up to about 1.1 µM and inactive = higher.

Experiments:
Assay in all cases: growth of human tumour cells (NCI), 48 h
EKVX = tested on: EKVX
RPMI-8226 = tested on: RPMI-8226
TK-10 = tested on: TK-10
HCT-116 = tested on: HCT-116
HCT-15 = tested on: HCT-15
K562 = tested on: K562
KM12 = tested on: KM12
OVCAR-4 = tested on: OVCAR-4
MCF7 = tested on: MCF7
HOP-92 = tested on: HOP-92
NCI-H226 = tested on: NCI-H226
RXF 393 = tested on: RXF 393
SNB-19 = tested on: SNB-19
M14 = tested on: M14
CCRF-CEM = tested on: CCRF-CEM
SK-MEL-5 = tested on: SK-MEL-5
BT-549 = tested on: BT-549
COLO 205 = tested on: COLO 205
SF-295 = tested on: SF-295
MDA-MB-435 = tested on: MDA-MB-435

Row | Structure (SMILES) | GI50 (EKVX) | GI50 (RPMI-8226) | GI50 (TK-10) | GI50 (HCT-116) | GI50 (HCT-15) [µM] | GI50 (K562) | GI50 (KM12) | GI50 (OVCAR-4) | GI50 (MCF7) | GI50 (HOP-92) | GI50 (NCI-H226) | GI50 (RXF 393) | GI50 (SNB-19) | GI50 (M14) | GI50 (CCRF-CEM) | GI50 (SK-MEL-5) | GI50 (BT-549) | GI50 (COLO 205) | GI50 (SF-295) | GI50 (MDA-MB-435)
1 | COc1ccc(OC(=O)N2C/C(=C\c3ccccc3)C(=O)/C(=C/c3ccccc3)C2)cc1 | 16.6 µM (inactive) | 0.0476 µM (active) | 18.2 µM (inactive) | 0.355 µM (active) | 2.79 | 0.824 µM (active) | 1.43 µM (inactive) | 8.17 µM (inactive) | 0.697 µM (active) | 19.1 µM (inactive) | 10.1 µM (inactive) | 2.58 µM (inactive) | 4.62 µM (inactive) | 2.62 µM (inactive) | 1.02 µM (active) | 3.09 µM (inactive) | 2.24 µM (inactive) | 7.74 µM (inactive) | 2.99 µM (inactive) | –
2 | O=C(/C(=N/Nc1cn[nH]c(=O)c1Cl)c1ccccc1)c1ccccc1 | 24 µM (inactive) | 24.6 µM (inactive) | 24.9 µM (inactive) | 23.1 µM (inactive) | 12.6 | 24.5 µM (inactive) | 12.8 µM (inactive) | 41.7 µM (inactive) | 45.8 µM (inactive) | 24.8 µM (inactive) | 25.3 µM (inactive) | 0.326 µM (active) | 91.6 µM (inactive) | 46.8 µM (inactive) | 32.4 µM (inactive) | 28.2 µM (inactive) | – | 20.3 µM (inactive) | 27.6 µM (inactive) | 5.11 µM (inactive)
3 | COc1ccc(-c2nc(N)c(C#N)c3c2CCS(=O)(=O)c2ccc(C)cc2-3)cc1OC | – | – | 56.1 µM (inactive) | 31.5 µM (inactive) | 16.1 | 10.7 µM (inactive) | 19.4 µM (inactive) | 25.8 µM (inactive) | – | 38.5 µM (inactive) | 77.1 µM (inactive) | – | 27.5 µM (inactive) | 28.4 µM (inactive) | – | 20.7 µM (inactive) | 21.8 µM (inactive) | 27.8 µM (inactive) | – | 15.1 µM (inactive)
4 | COC(=O)c1nc(N)nc(O)c1-c1ccc(Cl)cc1 | > 100 µM (inactive) | > 100 µM (inactive) | > 100 µM (inactive) | > 100 µM (inactive) | > 100 | > 100 µM (inactive) | > 100 µM (inactive) | > 100 µM (inactive) | – | > 100 µM (inactive) | > 100 µM (inactive) | > 100 µM (inactive) | > 100 µM (inactive) | > 100 µM (inactive) | > 100 µM (inactive) | > 100 µM (inactive) | – | > 100 µM (inactive) | > 100 µM (inactive) | –
5 | O=C1c2ccccc2C(=O)C1C(c1ccc([N+](=O)[O-])cc1)C1C(=O)c2ccccc2C1=O | > 100 µM (inactive) | 54.5 µM (inactive) | > 100 µM (inactive) | 24.3 µM (inactive) | 63.1 | > 100 µM (inactive) | 90.8 µM (inactive) | > 100 µM (inactive) | – | 36.2 µM (inactive) | 59.7 µM (inactive) | 14.3 µM (inactive) | > 100 µM (inactive) | 55.7 µM (inactive) | 32.4 µM (inactive) | > 100 µM (inactive) | – | > 100 µM (inactive) | > 100 µM (inactive) | –
6 | COc1cc(C(=O)NC(CCN)(c2ccccc2)c2ccccc2)cc(OC)c1OC | > 31.6 µM (inactive) | > 10 µM (inactive) | 28.8 µM (inactive) | > 42.4 µM (inactive) | > 31.6 | 12.9 µM (inactive) | 29.2 µM (inactive) | 21.2 µM (inactive) | > 31.6 µM (inactive) | 15.3 µM (inactive) | 30.8 µM (inactive) | 10.4 µM (inactive) | > 58.5 µM (inactive) | 13.9 µM (inactive) | > 10 µM (inactive) | 13 µM (inactive) | – | 14.1 µM (inactive) | 21.6 µM (inactive) | 16 µM (inactive)
7 | C/C(=N\NC(=O)CC#N)C(CN1CCCCC1)C(c1ccccc1)c1c(O)c2ccccc2oc1=O (stereo not given) | > 100 µM (inactive) | 33.7 µM (inactive) | 91.8 µM (inactive) | 62.2 µM (inactive) | 45.5 | 55 µM (inactive) | 39.5 µM (inactive) | 52.1 µM (inactive) | 17.3 µM (inactive) | 18.5 µM (inactive) | 52.1 µM (inactive) | – | 80.4 µM (inactive) | 68.5 µM (inactive) | 26.2 µM (inactive) | 51.2 µM (inactive) | 54.2 µM (inactive) | 18.6 µM (inactive) | – | 53.2 µM (inactive)
8 | Cc1nc2ccccc2c(=O)[nH]1 | > 100 µM (inactive) | > 100 µM (inactive) | > 100 µM (inactive) | > 100 µM (inactive) | > 100 | > 100 µM (inactive) | > 100 µM (inactive) | > 100 µM (inactive) | – | > 100 µM (inactive) | > 100 µM (inactive) | > 100 µM (inactive) | > 100 µM (inactive) | > 100 µM (inactive) | > 100 µM (inactive) | > 100 µM (inactive) | – | > 100 µM (inactive) | > 100 µM (inactive) | –
